According to patent US10441537B2, “Unit doses, aerosols, kits, and methods for treating heart conditions by pulmonary administration” (InCarda Therapeutics, Inc., priority 2017, dated 2019):
Read-outs that look alike come from different tables or passages of the source.

Assays:
Format in all cases: in vivo, human
[1] = system: healthy volunteers; test: Phase 1 study: lung spirometry tests
Experimental: (§1) Pulmonary safety was assessed by performing lung spirometry tests and measuring peripheral oxygen saturation (SpO2%) prior to dosing and at various times after completion of the inhalation. Lung spirometry tests evaluated all lung function parameters, including forced vital capacity (FVC), forced expiratory volume in 1 second (FEV1), peak expiratory flow (PEF), and forced expiratory flow at 25% and 75% intervals (FEF25-75). Auscultation and respiration rate were also measured prior to dosing and at various times after inhalation. Chest x-rays were performed on subjects before and after flecainide inhalation.

[2] = system: healthy volunteers; test: Phase 1 study: peripheral oxygen saturation (SpO2%); details: for Oxygen Saturation (SpO2%), Mean: Predose
Experimental: as §1

[3] = Phase 1 study: venous plasma pharmacokinetics; details: for Tmax / Cmax / AUC(0-t) / half-life: venous plasma; for Dist. t1/2α, mean (CV %): both; for half-life: read-out: Elim. t1/2, mean (CV %) (converted)
Experimental: In this study, for inhalation delivery of flecainide, the estimated total lung doses (eTLDs) were calculated to account for losses of flecainide in the inhalation device and losses of flecainide in subjects' mouth and throat. eTLD was thereby used to denote the dose that actually reached the lungs of the subjects. By design, in all nebulizers there can be a residual volume or mass of drug solution that stays in the nebulizer, and there can also be a percentage of the aerosol caught by subject's throat and mouth. For instance, in this study, it was estimated that 30% of the aerosol was lost in subject's throat and mouth.

[4] = system: healthy volunteers; test: Phase 1 study: ECG pharmacodynamics (QRS, PR, QTcF, T-wave) and PK-PD
Experimental: The ECG recordings included: 1) Continuous real-time ECG telemetry for observation of patient safety starting at 12 hours pre-dose and continuing for 12 hours post-dose, 2) 12-lead ECGs for immediate review by medical staff to ascertain the safety of the procedures and drug administration were recorded at pre-specified (or any time as needed) before dosing (pre-dose) and after dosing (post-dose), and 3) continuous 12-lead ECG (cECG, iCardiac Holter monitoring) was recorded for 24 hours, starting 1 hour prior to dosing and up to 24 hours post dosing.
As expected from non-steady state conditions, and shown in FIGS. 84A and 84B, a temporal dissociation is observed between ([Flec]plasma) and ΔQRS. […] The hysteresis between concentrations and responses (QRS) applies for both routes of administration, IV and inhalation.

## O=C(NCC1CCCCN1)c1cc(OCC(F)(F)F)ccc1OCC(F)(F)F (stereo not shown) [flecainide, flecainide acetate]
[1]; 20 mg eTLD, 24 hours Post-dose
  FEF25-75, Mean: 5.40 L/s
[1]; 40 mg eTLD, 12 hours Pre-dose
  FEF25-75, Mean: 5.00 L/s
[1]; 40 mg eTLD, 24 hours Post-dose
  FEF25-75, Mean: 4.80 L/s
[1]; Cohorts 1, 2, 3 and 5
  standard lung spirometry measurements (FEV1, PEF, FVC, FEF 25-75) and peripheral O2 saturation: normal before and after
[2]; 20 mg eTLD, 15 min Postdose
  SpO2%, Mean: 97%
[2]; 20 mg eTLD, 30 min Postdose
  SpO2%, Mean: 97%
[2]; 20 mg eTLD, 45 min Postdose
  SpO2%, Mean: 97%
[2]; 20 mg eTLD, 60 min Postdose
  SpO2%, Mean: 97%
[2]; 20 mg eTLD, 75 min Postdose
  SpO2%, Mean: 98%
[2]; 20 mg eTLD, 90 min Postdose
  SpO2%, Mean: 98%
[2]; 20 mg eTLD, 105 min Postdose
  SpO2%, Mean: 97%
[2]; 20 mg eTLD, 120 min Postdose
  SpO2%, Mean: 98%
[2]; 40 mg eTLD, 15 min Postdose
  SpO2%, Mean: 96%
[2]; 40 mg eTLD, 30 min Postdose
  SpO2%, Mean: 97%
[2]; 40 mg eTLD, 45 min Postdose
  SpO2%, Mean: 96%
[2]; 40 mg eTLD, 60 min Postdose
  SpO2%, Mean: 96%
[2]; 40 mg eTLD, 75 min Postdose
  SpO2%, Mean: 97%
[2]; 40 mg eTLD, 90 min Postdose
  SpO2%, Mean: 97%
[2]; 40 mg eTLD, 105 min Postdose
  SpO2%, Mean: 97%
[2]; 40 mg eTLD, 120 min Postdose
  SpO2%, Mean: 97%
[2]; Cohorts 1 and 2
  pre-dose and post-dose values for SpO2 (normal range): 97-98%
[2]; inhaled 20 mg eTLD, Cohort 1 (n=6)
  Oxygen Saturation (SpO2%), Mean: 98%
[2]; inhaled 40 mg eTLD, Cohort 2 (n=10)
  Oxygen Saturation (SpO2%), Mean: 97%
[3]; IV 2 mg/Kg over 10 min, Cohort 5, n=6, 2 mg/kg
  Tmax, median (min, max): 1 (0, 60) min after EOI
[3]; Inhaled 20 mg, n=6
  Elim. t1/2β, mean (CV %): 9.87 (25) hours
[3]; Inhaled 30 mg, Cohort 5, n=6
  Tmax, median (min, max): ≤ 1 min after EOI
[3]; Inhaled 30 mg, Cohort 5, n=6, listed as Flecainide
  Tmax, median (min, max): 0.5 (0, 1) min after EOI
[3]; Inhaled 40 mg, n=8 (post-hoc)
  Elim. t1/2β, mean (CV %): 9.0 (24) hours
[3]; Inhaled 60 mg, n=7 (post-hoc)
  Elim. t1/2β, mean (CV %): 12.0 (14) hours
[3]; both sexes, human, inhaled or intranasal, 20 mg, Inhaled 20 mg, n=6, from end of inhalation, read-out: Tmax, median (min, max) (converted)
  Tmax: 1 min
[3]; both sexes, human, inhaled or intranasal, 20 mg, Inhaled 20 mg, n=6, read-out: Cmax, arithmetic mean (CV %)
  Cmax: 95.1 ng/mL
[3]; both sexes, human, inhaled or intranasal, 40 mg, Inhaled 40 mg, n=8 (post-hoc), read-out: Cmax, mean (CV %)
  Cmax: 173 ng/mL
[3]; both sexes, human, inhaled or intranasal, 40 mg, Inhaled 40 mg, n=8 (post-hoc), read-out: Tmax, median (min, max) (converted)
  Tmax: 1 min
[3]; both sexes, human, inhaled or intranasal, 60 mg, Inhaled 60 mg, n=7 (post-hoc), read-out: Cmax, mean (CV %)
  Cmax: 232 ng/mL
[3]; both sexes, human, inhaled or intranasal, 60 mg, Inhaled 60 mg, n=7 (post-hoc), read-out: Tmax, median (min, max) (converted)
  Tmax: 1 min
[3]; both sexes, human, inhaled or intranasal, 60 mg, two subjects each of 40 and 60 mg eTLD cohorts, after the end of inhalation, read-out: Tmax of the four subjects excluded post hoc
  Tmax: 20 to 240 min
[3]; both sexes, human, inhaled or intranasal, Inhaled 20 mg, n=6, read-out: AUCLast, mean (CV %)
  AUC(0-t): 421 ng·h/mL
[3]; both sexes, human, inhaled or intranasal, Inhaled 40 mg, n=8 (post-hoc), read-out: AUCLast, mean (CV %)
  AUC(0-t): 685 ng·h/mL
[3]; both sexes, human, inhaled or intranasal, Inhaled 60 mg, n=7 (post-hoc), read-out: AUCLast, mean (CV %)
  AUC(0-t): 946 ng·h/mL
[3]; both sexes, human, inhaled, 40 mg, 40 mg eTLD cohort, read-out: Cmax of the two excluded subjects
  Cmax: 70.9 ng/mL
[3]; both sexes, human, inhaled, 60 mg, 60 mg eTLD cohort, read-out: Cmax of the two excluded subjects
  Cmax: 82.3 ng/mL
[3]; human, in vivo, inhaled or intranasal, 20 mg
  Dist. t1/2α, mean (CV %): 3.86 (34) min
[3]; human, in vivo, inhaled or intranasal, 40 mg
  Dist. t1/2α, mean (CV %): 4.19 (39) min
[3]; human, in vivo, inhaled or intranasal, 60 mg
  Dist. t1/2α, mean (CV %): 3.47 (17) min
[3]; human, in vivo
  estimated t1/2α: 3.5 to 4.2 min
[3]; human, inhaled or intranasal, 30 mg, Inhaled 30 mg, Cohort 5, n=6, read-out: Cmax, mean (CV %)
  Cmax: 120 ng/mL
[3]; human, inhaled or intranasal, 30 mg, Inhaled 30 mg, Cohort 5, n=6
  half-life: 606 min
[3]; human, inhaled or intranasal, Inhaled 30 mg, Cohort 5, n=6, read-out: AUClast, mean (CV %)
  AUC(0-t): 487 ng·h/mL
[3]; human, iv, 2 mg/kg, IV 2 mg/Kg, Cohort 5, n=6, read-out: Cmax, mean (CV %)
  Cmax: 749 ng/mL
[3]; human, iv, 2 mg/kg, IV 2 mg/Kg, Cohort 5, n=6
  half-life: 600 min
[3]; human, IV 2 mg/Kg, Cohort 5, n=6, read-out: AUClast, mean (CV %)
  AUC(0-t): 3050 ng·h/mL
[3]; inhaled 30 mg eTLD vs IV 2 mg/kg (b559: IV normalized to 30 mg), Cohort 5, 2 mg/kg
  venous plasma concentration-time curves, inhaled vs IV: near-identical
[3]; inhaled 20, 30 or 40 mg eTLD
  dose proportionality of venous plasma concentrations: near dose proportionality
[4]; 30 min after completion of inhalation, Cohorts 1-3
  QRS interval duration: returned to near pre-dose levels
[4]; IV infusion 2 mg/kg
  T-wave morphology: T-wave notching
